Measurements from paper PMC10258794, “To Fold or Not to Fold: Diastereomeric Optimization of an α-Helical Antimicrobial Peptide” (Journal of Medicinal Chemistry, 2023).
≈ marks a conversion by molar mass, not a printed value. Where two headings read alike, the source gives them in different places.

Experiments:
[1] = test system: Stenotrophomonas maltophilia; assay: microbe, parasite or virus in culture; type: cell-based; details: pH 7.4
Method: (§1) Antimicrobial activity was determined for all peptides on E. coli W3110, P. aeruginosa PAO1, A. baumannii ATCC19606, K. pneumoniae NCTC418, and methicillin-resistant S. aureus COL and for selected peptides on P. aeruginosa PA14 and the polymyxin B-resistant derivatives PA14 4.13, PA14 4.18, and PA14 2P4 as well as the clinical isolates ZEM-1A and ZEM9A, K. pneumoniae OXA-48, Enterobacter cloacae, Stenotrophomonas maltophilia, B. cenocepacia, and Staphylococus epidermis. To determine the MIC, the broth microdilution method was used.[75] A single bacterial colony was grown in LB medium overnight at 37 °C and 180 rpm shaking. The compounds were prepared as stock solutions of 2 mg/mL in sterilized milliQ deionized water, added to the first well of 96-well sterile, polypropylene round-bottom microtiter plates (TPP, untreated, Corning Incorporated, Kennebunk, USA), and diluted serially by 1/2. […] The bacterial inoculum was prepared by measuring the absorbance of the overnight culture, which was diluted to concentration of the bacteria was quantified by measuring absorbance at 600 nm and diluted to an OD600 of 0.022 in MH medium pH 7.4 (Sigma-Aldrich, Buchs, Switzerland). The sample solutions (150 μL) were mixed with 4 μL of diluted bacterial suspension with a final inoculation of about 5 × 10^5 CFU. For each test, two columns of the plate were kept for sterility control (MH medium only) and growth control (MH medium with bacterial inoculum, no compound). […] The plates were incubated at 37 °C for 16–20 h under static conditions. 15 μL of 3-(4,5-dimethylthiazol-2-yl)-2,5-diphenyltetrazolium bromide (MTT)[76] (1 mg/mL in sterilized milliQ deionized water) was added to each well, and the plates were incubated at room temperature until MTT staining was completed. The MIC was defined as the lowest concentration of the dendrimer that inhibits the visible growth of the tested bacteria (yellow) with the unaided eye.

P. aeruginosa ZEM-1A = assay: microbe, parasite or virus in culture; details: pH 7.4
Outline: (§2)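 A colony was grown overnight in LB at 37 °C, diluted in MH medium pH 7.4 to OD600 0.022 and added to 1/2 serial dilutions of compound (final about 5 × 10^5 CFU).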

PA14 4.13 (phoQ) = assay: microbe, parasite or virus in culture; details: supplementary CSV
Outline: as §2

PA14 2P4 (pmrB) = assay: microbe, parasite or virus in culture; details: supplementary CSV
Outline: as §2

PA14 4.18 (pmrB) = assay: microbe, parasite or virus in culture; details: supplementary CSV
Outline: as §2

Enterobacter cloacae = assay: microbe, parasite or virus in culture; details: pH 7.4
Outline: as §2

P. aeruginosa PA14 = assay: microbe, parasite or virus in culture
Outline: as §2

Burkolderia cenocepacia = assay: microbe, parasite or virus in culture; details: MDR strain; MH broth pH 7.4, 16–20 h, 37 °C
S. aureus COL MRSA = test system: S. aureus COL MRSA
Outline: as §2

K. pneumoniae NCTC418 = test system: K. pneumoniae NCTC418
Outline: as §2

[2] = test system: Pseudomonas aeruginosa, Klebsiella pneumoniae, Acinetobacter baumannii, Escherichia coli, and methicillin-resistant Staphylococcus aureus; details: summary of Table 1
Outline: as §2

P. aeruginosa PAO1 = test system: P. aeruginosa PAO1
Outline: as §2

E. coli W3110 = test system: E. coli W3110
Outline: as §2

A. baumannii ATCC19606 = test system: A. baumannii ATCC19606
Outline: as §2

K. pneumoniae Oxa-48 = assay: MIC broth microdilution, K. pneumoniae Oxa-48; type: cell-based, Klebsiella pneumoniae; details: MDR strain; MH broth pH 7.4, 16–20 h, 37 °C
Method: as §1

HEK293 cells = assay: Alamar blue cytotoxicity, HEK293; type: cell-based, human; details: 24 h, mean ± SD, n = 3, read-out: Toxicity on HEK293 cells
Method: The A549 human lung adenocarcinoma cells are derived from a patient and were kindly given to us by Dr. Georgia Konstatinidou (Pharmacology Institute, Bern University). HEK293T cells were obtained from ATCC (CRL-11268). A549 and HEK293 were cultured in an incubator at 37 °C with 5% CO2 in RPMI-1640 (Gibco) and DMEM (Gibco) containing 10% fetal bovine serum (Thermo Fisher), 100 I.U./mL penicillin, and 100 μg/mL streptomycin (Gibco).
The viability of the cells was assessed with an AlamarBlue assay (ThermoFisher). Cells were seeded into 96-well plates, 4000 cells/well (HEK293) and 8000 cells/well (A549), the day before the experiment. Cells were then treated with the increasing concentration of the compound and incubated for 24 h at 37 °C in the presence of 5% CO2. The next day, the medium was removed and replaced by a 10% AlamarBlue solution in full growth medium (DMEM or RPMI-1640). The cells were incubated for 3–5 h at 37 °C with 5% CO2 in a humidified atmosphere. The fluorescence was then measured on a Tecan Infinite M1000 Pro plate reader at λex 560 nm and λem 590 nm. The value was normalized according to the untreated cells.

Staphylococcus epidermis = assay: MIC broth microdilution, Staphylococcus epidermis; type: cell-based; details: pH 7.4
Method: as §1

P. aeruginosa ZEM9A = assay: microbe, parasite or virus in culture; type: cell-based, Pseudomonas aeruginosa; details: pH 7.4
Method: as §1

[3] = EYPC vesicle leakage assay; type: biochemical; details: 10 μg/mL of compound; 10 mM TRIS, 107 mM NaCl, pH 7.4
Method: 5(6)-carboxyfluorescein (CF) was purchased from Sigma. EYPC, EYPG, and a Mini-Extruder were purchased from Avanti Polar Lipids. Egg PC or Egg PG thin lipid layers were prepared by evaporating a solution of 100 mg of EYPC or EYPG in 4 mL of MeOH/CHCl3 (1:1) on a rotary evaporator at room temperature and then dried in vacuo overnight. […] Extravesicular components were removed by gel filtration (Sephadex G-50) with 10 mM TRIS, 107 mM NaCl, pH 7.4 buffer. Final conditions: ∼2.5 mM PC or PG; inside: 50 mM CF, 10 mM TRIS, 10 mM NaCl, pH 7.4 buffer; outside: 10 mM TRIS, 107 mM NaCl, pH 7.4. […] The CF efflux was monitored at λem 517 nm (λex 492 nm) as a function of time after addition of the desired volume of peptide from 2 mg/mL stock in mQ water at t = 45 s, 10 and 50 μg/mL were monitored for both EYPC and EYPG. […] Fluorescence intensities were then normalized to the maximal emission intensity using I(t) = (It – I0)/(I∞ – I0) where I0 = It at peptide addition, I∞ = It at saturation of lysis.

[4] = MH broth pH 7.4, 16–20 h, 37 °C
[5] = supplementary CSV, ranges of Table 1 given as one number

CC(C)C[C@H](NC(=O)[C@H](CC(C)C)NC(=O)[C@H](CC(C)C)NC(=O)[C@H](CCCCN)NC(=O)[C@@H](CC(C)C)NC(=O)[C@H](CC(C)C)NC(=O)[C@H](CCCCN)NC(=O)[C@@H](CC(C)C)NC(=O)[C@@H](CC(C)C)NC(=O)[C@@H](CCCCN)NC(=O)[C@@H](N)CCCCN)C(N)=O [HP11, KkllKLlKLLL]
MIC Stenotrophomonas maltophilia [1]: 4 µg/mL (≈ 3.03 µM)
MIC S. aureus Newman (S. aureus Newman; [4]): 2 µg/mL (≈ 1.51 µM)
MIC S. aureus Newmann (S. aureus Newman; supplementary CSV): 2 µg/mL (≈ 1.51 µM)
MIC ZEM-1A (P. aeruginosa ZEM-1A): 2 µg/mL (≈ 1.51 µM)
MIC P. aeruginosa PA14 4.13 (PA14 4.13 (phoQ)): 2 µg/mL (≈ 1.51 µM)
MIC P. aeruginosaPA14 2P4 (PA14 2P4 (pmrB)): 16 µg/mL (≈ 12.1 µM)
MIC P. aeruginosa PA14 4.18 (PA14 4.18 (pmrB)): 8 µg/mL (≈ 6.05 µM)
MIC Enterobacter cloacae (Enterobacter cloacae): 4 µg/mL (≈ 3.03 µM)
MIC PA14 (P. aeruginosa PA14; [4]): 1 µg/mL (≈ 0.757 µM)
MIC P. aeruginosa PA14 (P. aeruginosa PA14; supplementary CSV): 1 µg/mL (≈ 0.757 µM)
MIC Burkolderia cenocepacia (Burkolderia cenocepacia): >64 µg/mL
MIC S. aureus COL MRSA (S. aureus COL MRSA; [4]): 2 µg/mL (≈ 1.51 µM)
MIC S. aureus COL (S. aureus COL MRSA; [5]): 2 µg/mL (≈ 1.51 µM)
MIC K. pneumoniae NCTC418 (K. pneumoniae NCTC418; [4]): 4 to 8 µg/mL
MIC K. pneumoniae NCTC418 (K. pneumoniae NCTC418; [5]): 6 µg/mL (≈ 4.54 µM)
MIC, span over the five bacterial strains [2]: 2 to 8 µg/mL
MIC P. aeruginosa PAO1 (P. aeruginosa PAO1; [4]): 2 to 4 µg/mL
MIC P. aeruginosa PAO1 (P. aeruginosa PAO1; [5]): 3 µg/mL (≈ 2.27 µM)
MIC E. coli W3110 (E. coli W3110; [4]): 2 µg/mL (≈ 1.51 µM)
MIC A. baumannii ATCC19606 (A. baumannii ATCC19606; [4]): 2 µg/mL (≈ 1.51 µM)
MIC A. baumannii ATCC19606 (A. baumannii ATCC19606; [5]): 2 µg/mL (≈ 1.51 µM)
MIC K. pneumoniae Oxa-48 (K. pneumoniae Oxa-48): 4 µg/mL (≈ 3.03 µM)
IC50 (HEK293 cells): 64.8 ± 4.3 µM
MIC Staphylococcus epidermis (Staphylococcus epidermis): 4 µg/mL (≈ 3.03 µM)
MIC ZEM9A (P. aeruginosa ZEM9A): 8 µg/mL (≈ 6.05 µM)

CC(C)C[C@H](NC(=O)[C@H](CC(C)C)NC(=O)[C@H](CC(C)C)NC(=O)[C@@H](CCCCN)NC(=O)[C@@H](CC(C)C)NC(=O)[C@@H](CC(C)C)NC(=O)[C@@H](CCCCN)NC(=O)[C@H](CC(C)C)NC(=O)[C@H](CC(C)C)NC(=O)[C@H](CCCCN)NC(=O)[C@@H](N)CCCCN)C(N)=O [HP13, KKLLkllkLLL]
EYPC vesicle leakage (%) [3]: 8%
MIC, span over E. coli, P. aeruginosa, and A. baumannii [2]: 4 to 32 µg/mL
MIC P. aeruginosa PAO1 (P. aeruginosa PAO1; [4]): 16 to 32 µg/mL
MIC P. aeruginosa PAO1 (P. aeruginosa PAO1; [5]): 24 µg/mL (≈ 18.2 µM)
MIC E. coli W3110 (E. coli W3110; [4]): 4 to 8 µg/mL
MIC E. coli W3110 (E. coli W3110; [5]): 6 µg/mL (≈ 4.54 µM)
MIC A. baumannii ATCC19606 (A. baumannii ATCC19606; [4]): 16 to 32 µg/mL
MIC A. baumannii ATCC19606 (A. baumannii ATCC19606; [5]): 24 µg/mL (≈ 18.2 µM)
